The test addresses human PCSK9 (Homo sapiens, UniProt Q8NBP7). The experiment in a line: PCSK9 ligand binding assay (TR-FRET): interference with binding of human PCSK9 to human LDLR. The note with it: for IC50: Human PCSK9 Alexa Fluor 647 / Human LDLR extracellular domain-Europium Kryptate; for Max % inhibition: efficacy (Amax), 100% = 1 uM unlabeled human PCSK9, 0% = DMSO. The method, boiled down:
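Read-out was TR-FRET ratio (665 nm over 615 nm, 330 nm excitation) between Alexa Fluor 647-human PCSK9 (16 nM added) and Europium Kryptate-human LDLR ectodomain (4 nM added). Compound and PCSK9 were mixed 30 min before LDLR, then incubated 2 h. Inhibition was normalised to DMSO and unlabelled-PCSK9 controls, giving IC50 and Amax.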

This is an account of results in patent US11813306B2, “Cyclic tetramer compounds as proprotein convertase subtilisin/kexin type 9 (PCSK9) inhibitors for the treatment of metabolic disorders” (NOVARTIS AG, priority 2018, dated 2023).

Chain of human PCSK9 (Q8NBP7 153-692): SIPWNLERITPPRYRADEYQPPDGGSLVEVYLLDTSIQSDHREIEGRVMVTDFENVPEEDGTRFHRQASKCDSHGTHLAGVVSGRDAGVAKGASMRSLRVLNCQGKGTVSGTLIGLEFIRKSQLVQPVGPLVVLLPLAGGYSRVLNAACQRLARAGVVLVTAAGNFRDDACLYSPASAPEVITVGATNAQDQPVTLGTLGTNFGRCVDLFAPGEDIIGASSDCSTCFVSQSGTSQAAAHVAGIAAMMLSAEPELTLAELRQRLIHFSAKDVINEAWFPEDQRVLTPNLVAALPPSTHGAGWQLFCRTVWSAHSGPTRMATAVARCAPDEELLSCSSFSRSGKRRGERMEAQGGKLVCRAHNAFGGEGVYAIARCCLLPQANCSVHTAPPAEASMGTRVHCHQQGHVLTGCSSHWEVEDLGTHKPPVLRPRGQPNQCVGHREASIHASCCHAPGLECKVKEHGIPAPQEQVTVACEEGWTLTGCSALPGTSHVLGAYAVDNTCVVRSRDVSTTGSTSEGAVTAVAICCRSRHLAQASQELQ
Chain of human PCSK9 (Q8NBP7 31-152 partner limits assumed): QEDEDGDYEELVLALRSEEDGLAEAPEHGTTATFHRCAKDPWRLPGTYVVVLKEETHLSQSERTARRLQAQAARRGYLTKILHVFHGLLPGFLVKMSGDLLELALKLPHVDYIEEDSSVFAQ

For orientation: IC50 means the concentration at which inhibition is half-maximal. Low readings indicate greater potency in that assay, high ones weaker potency in that assay. Take `COC[C@@H]1NC(=O)[C@H](C)N(Cc2c(F)cc(Cl)cc2Oc2ccc(-c3cnc(CNC4CCC4)n3C)cc2)C(=O)C[C@@H](CC(F)(F)F)C(=O)N2CCC[C@@](Cc3ccc(Cl)cc3)(C2)NC1=O` [Compound 45, (3S,7S,10S,13R)-6-(4-Chloro-2-(4-(2-((cyclobutylamino)methyl)-1-methyl-1H-imidazol-5-yl)phenoxy)-6-fluorobenzyl)-13-(4-chlorobenzyl)-10-(methoxymethyl)-7-methyl-3-(2,2,2-trifluoroethyl)-1,6,9,12-tetraazabicyclo[11.3.1]heptadecane-2,5,8,11-tetraone]: the IC50 was determined as 816 pM and the Max % inhibition was 103.7%.
For `C[C@H]1C(=O)N[C@@H](CO)C(=O)N[C@@]2(Cc3ccc(Cl)cc3)CCCN(C2)C(=O)[C@H](Cc2c(F)cc(F)cc2F)CC(=O)N1Cc1ccc(Cl)cc1Oc1ccc(-c2cnc(CN(C)C)n2C)cc1` [Compound 46, (3R, 7S, 10S, 13R)-6-(4-chloro-2-(4-(2-((dimethylamino)methyl)-1-methyl-1H-imidazol-5-yl)phenoxy)benzyl)-13-(4-chlorobenzyl)-10-(hydroxymethyl)-7-methyl-3-(2,4,6-trifluorobenzyl)-1,6,9,12-tetraazabicyclo[11.3.1]heptadecane-2,5,8,11-tetraone] the same measures were 568 pM and 112.3%.
The matching figures for `C[C@H]1C(=O)N[C@@H](CO)C(=O)N[C@@]2(Cc3ccc(Cl)cc3)CCCN(C2)C(=O)[C@H](Cc2cccnc2)CC(=O)N1Cc1ccc(Cl)cc1Oc1ccc(-c2cnc(CN3CCOCC3)n2C)cc1.Cl` [Compound 47, (3R, 7S, 10S, 13R)-6-(4-chloro-2-(4-(1-methyl-2-(morpholinomethyl)-1H-imidazol-5-yl)phenoxy)benzyl)-13-(4-chlorobenzyl)-10-(hydroxymethyl)-7-methyl-3-(pyridin-3-ylmethyl)-1,6,9,12-tetraazabicyclo[11.3.1]heptadecane-2,5,8,11-tetraone]: 820 pM and 97.0%.
For `C[C@H]1C(=O)N[C@@H](CO)C(=O)N[C@@]2(Cc3ccc(Cl)cc3)CCCN(C2)C(=O)[C@H](Cc2ccc(F)c(F)c2F)CC(=O)N1Cc1c(F)cc(Cl)cc1Oc1ccc(-c2cnc(CN(C)C)n2C)cc1` [Compound 48, (3R, 7S, 10S, 13R)-6-(4-chloro-2-(4-(2-((dimethylamino)methyl)-1-methyl-1H-imidazol-5-yl)phenoxy)-6-fluorobenzyl)-13-(4-chlorobenzyl)-10-(hydroxymethyl)-7-methyl-3-(2,3,4-trifluorobenzyl)-1,6,9,12-tetraazabicyclo[11.3.1]heptadecane-2,5,8,11-tetraone] the same measures were 596 pM and 102.8%.
As to `C[C@H]1C(=O)N[C@@H](CO)C(=O)N[C@@]2(Cc3ccc(Cl)cc3)CCCN(C2)C(=O)[C@H]([C@@H]2CCc3ccccc32)CC(=O)N1Cc1c(F)cc(Cl)cc1Oc1ccc(-c2cnc(CN(C)C)n2C)cc1` [Compound 49, (3S, 7S, 10S, 13R)-6-(4-chloro-2-(4-(2-((dimethylamino)methyl)-1-methyl-1H-imidazol-5-yl)phenoxy)-6-fluorobenzyl)-13-(4-chlorobenzyl)-3-((S)-2,3-dihydro-1H-inden-1-yl)-10-(hydroxymethyl)-7-methyl-1,6,9,12-tetraazabicyclo[11.3.1]heptadecane-2,5,8,11-tetraone], the half-maximal inhibitory concentration (IC50) was found to be 631 pM and the Max % inhibition was 102.2%.
For `C[C@H]1C(=O)N[C@@H](CO)C(=O)N[C@@]2(Cc3ccc(Cl)cc3)CCCN(C2)C(=O)[C@H](Cc2ccccc2)CC(=O)N1Cc1ccc(Cl)cc1Oc1ccc(-c2cnc(CN(C)C)n2C)cc1` [Compound 50, (3R,7S,10S,13R)-3-Benzyl-6-(4-chloro-2-(4-(2-((dimethylamino)methyl)-1-methyl-1H-imidazol-5-yl)phenoxy)benzyl)-13-(4-chlorobenzyl)-10-(hydroxymethyl)-7-methyl-1,6,9,12-tetraazabicyclo[11.3.1]heptadecane-2,5,8,11-tetraone] the same measures were 510 pM and 108.7%.
For `CCC[C@@H]1CC(=O)N(Cc2c(F)cc(Cl)cc2Oc2ccc(-c3cnc(CN(C)C)n3C)cc2)[C@@H](C)C(=O)N[C@@H](CO)C(=O)N[C@@]2(Cc3ccc(Cl)cc3)CCCN(C2)C1=O` [Compound 51, (3R, 7S, 10S, 13R)-6-(4-chloro-2-(4-(2-((dimethylamino)methyl)-1-methyl-1H-imidazol-5-yl)phenoxy)-6-fluorobenzyl)-13-(4-chlorobenzyl)-10-(hydroxymethyl)-7-methyl-3-propyl-1,6,9,12-tetraazabicyclo[11.3.1]heptadecane-2,5,8,11-tetraone] the same measures were 1120 pM and 101.3%.
Regarding `COC[C@@H]1NC(=O)[C@H](C)N(Cc2ccc(Cl)cc2Oc2ccc(-c3cnc(CN(C)C)n3C)nc2)C(=O)C[C@@H](Cc2ccccc2)C(=O)N2CCC[C@@](Cc3ccc(Cl)cc3)(C2)NC1=O` [Compound 52, (3R, 7S, 10S, 13R)-3-benzyl-6-(4-chloro-2-((6-(2-((dimethylamino)methyl)-1-methyl-1H-imidazol-5-yl)pyridin-3-yl)oxy)benzyl)-13-(4-chlorobenzyl)-10-(methoxymethyl)-7-methyl-1,6,9,12-tetraazabicyclo[11.3.1]heptadecane-2,5,8,11-tetraone], the IC50 was 610 pM and the Max % inhibition is listed as 112.5%.
For the compound `C[C@H]1C(=O)N[C@@H](CO)C(=O)N(C)[C@@]2(Cc3ccc(Cl)cc3)CCCN(C2)C(=O)[C@H](Cc2ccccc2)CC(=O)N1Cc1ccc(Cl)cc1Oc1ccc(-c2cnc(CN(C)C)n2C)cc1` [Compound 53, (3R, 7S, 10S, 13R)-3-benzyl-6-(4-chloro-2-(4-(2-((dimethylamino)methyl)-1-methyl-1H-imidazol-5-yl)phenoxy)benzyl)-13-(4-chlorobenzyl)-10-(hydroxymethyl)-7,12-dimethyl-1,6,9,12-tetraazabicyclo[11.3.1]heptadecane-2,5,8,11-tetraone], the half-maximal inhibitory concentration (IC50) amounted to 700 pM and the Max % inhibition is 107.4%.
Turning to `C[C@H]1C(=O)N[C@@H](CO)C(=O)N[C@@]2(Cc3ccc(Cl)cc3)CCCN(C2)C(=O)[C@H](Cc2ccccc2)CC(=O)N1Cc1cc(F)c(Cl)cc1Oc1ccc(-c2cnc(CN(C)C)n2C)cc1` [Compound 54, (3R, 7S, 10S, 13R)-3-benzyl-6-(4-chloro-2-(4-(2-((dimethylamino)methyl)-1-methyl-1H-imidazol-5-yl)phenoxy)-5-fluorobenzyl)-13-(4-chlorobenzyl)-10-(hydroxymethyl)-7-methyl-1,6,9,12-tetraazabicyclo[11.3.1]heptadecane-2,5,8,11-tetraone], the 50% inhibitory concentration (IC50) was found to be 624 pM and the Max % inhibition is given as 109.4%.
With `C[C@H]1C(=O)N[C@@H](CO)C(=O)N[C@@]2(Cc3ccc(Cl)cc3)CCCN(C2)C(=O)[C@H]([C@@H]2CCc3ccccc32)CC(=O)N1Cc1ccccc1Oc1ccc(-c2cnc(CN(C)C)n2C)cc1` [Compound 55, (3S,7S,10S,13R)-13-(4-chlorobenzyl)-3-((S)-2,3-dihydro-1H-inden-1-yl)-6-(2-(4-(2-((dimethylamino)methyl)-1-methyl-1H-imidazol-5-yl)phenoxy)benzyl)-10-(hydroxymethyl)-7-methyl-1,6,9,12-tetraazabicyclo[11.3.1]heptadecane-2,5,8,11-tetraone], the IC50 came out at 742 pM and the Max % inhibition was found to be 96.0%.
`C[C@H]1C(=O)N[C@@H](CO)C(=O)N[C@@]2(Cc3ccc(Cl)cc3)CCCN(C2)C(=O)[C@H](Cc2ccccc2)CC(=O)N1Cc1ccc(Cl)cc1Oc1ccc(-c2nnc(CN(C)C)n2C)cc1` [Compound 56, (3R, 7S, 10S, 13R)-3-benzyl-6-(4-chloro-2-(4-(5-((dimethylamino)methyl)-4-methyl-4H-1,2,4-triazol-3-yl)phenoxy)benzyl)-13-(4-chlorobenzyl)-10-(hydroxymethyl)-7-methyl-1,6,9,12-tetraazabicyclo[11.3.1]heptadecane-2,5,8,11-tetraone]: the IC50 stood at 425 pM and the Max % inhibition is listed as 101.7%.
As to `COC[C@@H]1NC(=O)[C@H](C)N(Cc2c(F)cc(Cl)cc2Oc2ccc(-c3cnc(CN(C)C)n3C)cc2)C(=O)C[C@@H](Cc2ccccn2)C(=O)N2CCC[C@@](Cc3ccc(Cl)cc3)(C2)N(C)C1=O` [Compound 57, (3R,7S,10S,13R)-6-(4-Chloro-2-(4-(2-((dimethylamino)methyl)-1-methyl-1H-imidazol-5-yl)phenoxy)-6-fluorobenzyl)-13-(4-chlorobenzyl)-10-(methoxymethyl)-7,12-dimethyl-3-(pyridin-2-ylmethyl)-1,6,9,12-tetraazabicyclo[11.3.1]heptadecane-2,5,8,11-tetraone], the IC50 worked out at 763 pM and the Max % inhibition is 115.6%.
For `C[C@H]1C(=O)N[C@@H](CO)C(=O)N[C@@]2(Cc3ccc(Cl)cc3)CCCN(C2)C(=O)[C@H](CC(F)F)NC(=O)N1Cc1ccc(Cl)cc1Oc1ccc(-c2cnc(CN(C)C)n2C)cc1.Cl` [Compound 58, (3S, 7S, 10S, 13R)-6-(4-chloro-2-(4-(2-((dimethylamino)methyl)-1-methyl-1H-imidazol-5-yl)phenoxy)benzyl)-13-(4-chlorobenzyl)-3-(2,2-difluoroethyl)-10-(hydroxymethyl)-7-methyl-1,4,6,9,12-pentaazabicyclo[11.3.1]heptadecane-2,5,8,11-tetraone] the same measures were 367 pM and 106.6%.
